# Measured values reported in publication PMC10578927, “An unconventional gatekeeper mutation sensitizes inositol hexakisphosphate kinases to an allosteric inhibitor” (eLife, 2023).
# Target: T1, IP6KA^M85V (Entamoeba histolytica, UniProt N9UNA8, M85V)
# T1 sequence (N9UNA8 1-270 M85V): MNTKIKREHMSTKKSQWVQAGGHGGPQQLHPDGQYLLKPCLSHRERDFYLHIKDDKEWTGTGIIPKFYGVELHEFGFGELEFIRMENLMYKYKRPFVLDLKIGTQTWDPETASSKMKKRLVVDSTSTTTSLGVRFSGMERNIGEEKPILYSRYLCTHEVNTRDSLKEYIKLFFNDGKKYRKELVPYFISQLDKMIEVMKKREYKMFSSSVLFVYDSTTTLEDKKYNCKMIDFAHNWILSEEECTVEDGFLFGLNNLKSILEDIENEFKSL
# Experiment: NMR activity assay for EhIP6KA constructs
# Type: biochemical
structure (smiles),measurement,value
O=C(O)c1ccc2c(c1)C(=O)N(c1ccc(-c3nc4ccc(N5C(=O)c6ccc(C(=O)O)cc6C5=O)cc4[nH]3)cc1)C2=O [FMP-201300],IC50,780 nM
